Measurements from patent publication US20210107993A1, “CARTYRIN COMPOSITIONS AND METHODS FOR USE” (Poseida Therapeutics, Inc., priority 2018, published 2021).

Legend:
[1] = test system: cells; conditions: cited from earlier work
[2] = test system: cells; assay: AP1903 amount for effective signaling of cells in vitro; type: cell-based; conditions: 1600 Da MW
Method: The fixed dose of AP1903 for injection used, for example, may be 0.4 mg/kg intravenously infused over 2 hours. The amount of AP1903 needed in vitro for effective signaling of cells is 10-100 nM (1600 Da MW). This equates to 16-160 μg/L or 0.016-1.6 μg/kg (1.6-160 μg/kg). Doses up to 1 mg/kg were well-tolerated in the Phase I study of AP1903 described above. Therefore, 0.4 mg/kg may be a safe and effective dose of AP1903 for this Phase I study in combination with the therapeutic cells.

[3] = cited from earlier work
[4] = molecular target: T1, iC9 safety switch (Homo sapiens, UniProt P62942, F37V); assay: iC9 safety switch test: viability by flow cytometry using 7-AAD after AP1903; type: cell-based
T1 construct: expressed in transfected cells
T1 sequence (P62942 with tags, fused parts or gaps F37V): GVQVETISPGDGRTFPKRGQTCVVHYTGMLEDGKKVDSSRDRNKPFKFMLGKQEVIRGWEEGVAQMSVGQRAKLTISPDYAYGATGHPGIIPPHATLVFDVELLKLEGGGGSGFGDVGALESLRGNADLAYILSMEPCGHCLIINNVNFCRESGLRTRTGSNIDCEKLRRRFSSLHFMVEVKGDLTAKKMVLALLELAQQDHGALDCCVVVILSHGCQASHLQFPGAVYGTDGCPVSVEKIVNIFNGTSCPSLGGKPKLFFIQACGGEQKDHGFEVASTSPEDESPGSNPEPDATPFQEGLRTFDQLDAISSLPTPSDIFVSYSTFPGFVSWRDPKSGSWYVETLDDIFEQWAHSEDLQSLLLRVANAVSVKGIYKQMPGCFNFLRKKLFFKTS
From the text: Human pan T-cells were nucleofected using an Amaxa 4D nucleofector with one of four piggyBac transposons. Modified T cells receiving the “mock” condition were nucleofected with an empty piggyBac transposon. Modified T cells received either a piggyBac transposon containing a therapeutic agent alone (a sequence encoding a CARTyrin) or a piggyBac transposon containing an integrated iC9 sequence and a therapeutic agent (a sequence encoding a CARTyrin).
To test the iC9 safety switch, each of the four modified T cells were incubated for 24 hours with 0, 0.1 nM, 1 nM, 10 nM, 100 nM or 1000 nM AP1903 (an induction agent for […]). Viability was assessed by flow cytometry using 7-aminoactinomycin D (7-AAD), a fluorescent intercalator, as a marker for cells undergoing apoptosis.
Cell viability was assessed at day 12 (see FIG. 9). […] Moreover, cell viability was assessed at day 19 (see FIG. 10). […]
A quantification of the aggregated results was performed and is provided in FIG. 11, showing the significant impact of the iC9 safety switch on the percent cell viability as a function of the concentration of the induction agent (AP1903) of the iC9 switch for each modified cell type at either day 12 (FIG. 9 and left graph) or day 19 (FIG. 10 and right graph).

[5] = test system: Pan T cells; assay: Expansion of BCMA CAR-T cells with CSR over 19 day culture; type: cell-based, human; conditions: CSR transient (mRNA) or stable (piggyBac)
From the text: FIG. 36 is a graph showing that delivery of CSR enhances the expansion of CAR-T cells. CSRs were delivered to CAR-T cells either transiently by mRNA or stably by piggyBac™. Pan T cells isolated from the blood of a normal donor were genetically modified using the piggyBac™ DNA modification system and the standard Poseida process. Cells were co-electroporated in a single reaction with mRNA encoding the Super piggyBac transposase enzyme (SPB), a transposon encoding a BCMA CAR and selection gene, along with an additional mRNA encoding a CSR (either CD28z or CD2z; resulting in transient expression) or a CD19 mRNA control, or, with a transposon encoding a BCMA CAR, selection gene and a CSR (either CD28z or CD2z; resulting in stable expression). The cells were subsequently stimulated with agonist mAbs anti-CD2, anti-CD3 and anti-CD28, and were later selected for genetic modification over the course of a 19 day culture period. At the end of the initial culture period all T cells expressed the CAR, indicating successful selection for genetically-modified cells (data not shown). Bars represent total live CAR-T cells in well and numbers indicate fold-enhancement of expansion above CAR-T cells produced in the absence of a CSR or a CD19 mRNA control.

CC[C@H](C(=O)N1CCCC[C@H]1C(=O)O[C@H](CCc1ccc(OC)c(OC)c1)c1cccc(OCC(=O)NCCNC(=O)COc2cccc([C@@H](CCc3ccc(OC)c(OC)c3)OC(=O)[C@@H]3CCCCN3C(=O)[C@@H](CC)c3cc(OC)c(OC)c(OC)c3)c2)c1)c1cc(OC)c(OC)c(OC)c1 (relative stereo) [AP1903, 2-Piperidinecarboxylic acid, 1-[(2S)-1-oxo-2-(3,4,5-trimethoxyphenyl)butyl]-, 1,2-ethanediylbis[imino(2-oxo-2,1-ethanediyl)oxy-3,1-phenylene[(1R)-3-(3,4-dimethoxyphenyl)propylidene]]ester, [2S-[1(R*),2R*[S*[S*[1(R*),2R*]]]]]-(9C1)]
amount needed in vitro for effective signaling of cells [1]: 10 to 100 nM
amount needed in vitro for effective signaling of cells, converted [2]: 16 to 160 µg/L
safety and tolerability ([3]; 0.01, 0.05, 0.1, 0.5 and 1.0 mg/kg IV over 2 hours): safe and well tolerated at all dose levels
mean Cmax ([3]; 0.01-1.0 mg/kg infused IV over 2 hours, healthy volunteers): 10 to 1275 ng/mL
plasma levels versus dose ([3]; 0.01-1.0 mg/kg): directly proportional to dose
well-tolerated dose ([3]; Phase I study): up to 1 mg/kg
plasma level as % of maximal concentration, 0.5 hours post-dose ([3]; after initial infusion period): approximately 18%
plasma level as % of maximal concentration, 2 hours post-dose ([3]; after initial infusion period): ~7%
plasma level as % of maximal concentration, 10 hours post-dose ([3]; after initial infusion period): ~1%
pharmacokinetic profile ([3]; human, in vivo): favorable pharmacokinetic profile
concentration at which AP1903 induces apoptosis (lowest concentration of the study) ([4]; T cells containing iC9 construct, 24 hours incubation): ≤ 0.1 nM

CD28z CSR: chimeric stimulatory receptor: wild type CD28 and CD3z intracellular stimulation domain, SEQ ID NO: 17910
expansion of CAR-T cells [5]: a greater degree of expansion of the CAR-T cells

iC9 safety switch: ligand binding region (FKBP12 F36V), a linker, and a truncated caspase 9 polypeptide (SEQ ID NO: 18032)
apoptosis induced by presence of the iC9 safety switch ([4]; with induction agent AP1903, by day 12 post-nucleofection): induces apoptosis in a significant majority of cells

B1: CD2z CSR: chimeric stimulatory receptor: wild type CD2 and CD3z intracellular stimulation domain, SEQ ID NO: 17912 (protein)
chain: MSFPCKFVASFLLIFNVSSKGAVSKEITNALETWGALGQDINLDIPSFQMSDDIDDIKWEKTSDKKKIAQFRKEKETFKEKDTYKLFKNGTLKIKHLKTDDQDIYKVSIYDTKGKNVLEKIFDLKIQERVSKPKISWTCINTTLTCEVMNGTDPELNLYQDGKHLKLSQRVITHKWTTSLSAKFKCTAGNKVSKESSVEPVSCPEKGLDIYLIIGICGGGSLLMVFVALLVFYITKRKKQRSRRNDEELETRAHRVATEERGRKPHQIPASTPQNPATSQHPPPPPGHRSQAPSHRPPPPGHRVQHQPQKRPPAPSGTQVHQQKGPPLPRPRVQPKPPHGAAENSLSPSSNRVKFSRSADAPAYKQGQNQLYNELNLGRREEYDVLDKRRGRDPEMGGKPRRKNPQEGLYNELQKDKMAEAYSEIGMKGERRRGKGHDGLYQGLSTATKDTYDALHMQALPPR
expansion of CAR-T cells [5]: a greater degree of expansion of the CAR-T cells
